According to patent US12281080B2, “Quinoline-based compounds and methods of inhibiting CDK8/19” (University of South Carolina, priority 2018, dated 2025):

Key:
Assay in all cases: KINOMEscan scanMAX
Type in all cases: binding
Details in all cases: 2000 nM; read-out: Percent Control
FAK (PTK2) = FAK (PTK2) (Homo sapiens (Human), UniProt Q05397)
[1] = target: ABL1(T315I)-nonphosphorylated (Homo sapiens (Human), UniProt P00519, T315I)
NIM1 (MGC42105) = NIM1 (MGC42105) (Homo sapiens (Human), UniProt Q8IY84)
MYLK = MYLK (Homo sapiens (Human), UniProt Q15746)
CDK3 = CDK3 (Homo sapiens (Human), UniProt Q00526)
Chain of CDK3 (Q00526 whole entry): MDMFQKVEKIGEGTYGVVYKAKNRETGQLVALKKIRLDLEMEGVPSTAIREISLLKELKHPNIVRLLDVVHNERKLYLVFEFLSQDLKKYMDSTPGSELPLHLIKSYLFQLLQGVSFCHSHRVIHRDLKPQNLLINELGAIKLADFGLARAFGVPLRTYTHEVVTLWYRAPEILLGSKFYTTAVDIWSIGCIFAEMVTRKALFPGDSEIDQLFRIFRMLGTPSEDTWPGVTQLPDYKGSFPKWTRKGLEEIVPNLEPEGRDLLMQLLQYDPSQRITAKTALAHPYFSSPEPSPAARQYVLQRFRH

CTK (MATK) = CTK (MATK) (Homo sapiens (Human), UniProt P42679)
[2] = target: PFPK5(P.falciparum) (MAL13P1.279) (Plasmodium falciparum (isolate 3D7), UniProt P61075)
DRAK1 (STK17A) = DRAK1 (STK17A) (Homo sapiens (Human), UniProt Q9UEE5)
MAP3K3 = MAP3K3 (Homo sapiens (Human), UniProt Q99759)
MLK1 (MAP3K9) = MLK1 (MAP3K9) (Homo sapiens (Human), UniProt P80192)
RAF1 = RAF1 (Homo sapiens (Human), UniProt P04049)
MARK3 = MARK3 (Homo sapiens (Human), UniProt P27448)
[3] = target: RPS6KA5(Kin.Dom.2-C-terminal) (Homo sapiens (Human), UniProt O75582)
DYRK1A = DYRK1A (Homo sapiens (Human), UniProt Q13627)
BRAF = BRAF (Homo sapiens (Human), UniProt P15056)
INSR = INSR (Homo sapiens (Human), UniProt P06213)
MUSK = MUSK (Homo sapiens (Human), UniProt O15146)
TRPM6 = TRPM6 (Homo sapiens (Human), UniProt Q9BX84)
FGFR4 = FGFR4 (Homo sapiens (Human), UniProt P22455)
ULK3 = ULK3 (Homo sapiens (Human), UniProt Q6PHR2)
EGFR(G719C) = EGFR(G719C) (Homo sapiens (Human), UniProt P00533, G719C)
BRSK1 = BRSK1 (Homo sapiens (Human), UniProt Q8TDC3)
WEE1 = WEE1 (Homo sapiens (Human), UniProt P30291)
[4] = target: ABL1(F317L)-nonphosphorylated (Homo sapiens (Human), UniProt P00519, F317L)
TAOK2 = TAOK2 (Homo sapiens (Human), UniProt Q9UL54)
Chain of TAOK2 (Q9UL54 whole entry): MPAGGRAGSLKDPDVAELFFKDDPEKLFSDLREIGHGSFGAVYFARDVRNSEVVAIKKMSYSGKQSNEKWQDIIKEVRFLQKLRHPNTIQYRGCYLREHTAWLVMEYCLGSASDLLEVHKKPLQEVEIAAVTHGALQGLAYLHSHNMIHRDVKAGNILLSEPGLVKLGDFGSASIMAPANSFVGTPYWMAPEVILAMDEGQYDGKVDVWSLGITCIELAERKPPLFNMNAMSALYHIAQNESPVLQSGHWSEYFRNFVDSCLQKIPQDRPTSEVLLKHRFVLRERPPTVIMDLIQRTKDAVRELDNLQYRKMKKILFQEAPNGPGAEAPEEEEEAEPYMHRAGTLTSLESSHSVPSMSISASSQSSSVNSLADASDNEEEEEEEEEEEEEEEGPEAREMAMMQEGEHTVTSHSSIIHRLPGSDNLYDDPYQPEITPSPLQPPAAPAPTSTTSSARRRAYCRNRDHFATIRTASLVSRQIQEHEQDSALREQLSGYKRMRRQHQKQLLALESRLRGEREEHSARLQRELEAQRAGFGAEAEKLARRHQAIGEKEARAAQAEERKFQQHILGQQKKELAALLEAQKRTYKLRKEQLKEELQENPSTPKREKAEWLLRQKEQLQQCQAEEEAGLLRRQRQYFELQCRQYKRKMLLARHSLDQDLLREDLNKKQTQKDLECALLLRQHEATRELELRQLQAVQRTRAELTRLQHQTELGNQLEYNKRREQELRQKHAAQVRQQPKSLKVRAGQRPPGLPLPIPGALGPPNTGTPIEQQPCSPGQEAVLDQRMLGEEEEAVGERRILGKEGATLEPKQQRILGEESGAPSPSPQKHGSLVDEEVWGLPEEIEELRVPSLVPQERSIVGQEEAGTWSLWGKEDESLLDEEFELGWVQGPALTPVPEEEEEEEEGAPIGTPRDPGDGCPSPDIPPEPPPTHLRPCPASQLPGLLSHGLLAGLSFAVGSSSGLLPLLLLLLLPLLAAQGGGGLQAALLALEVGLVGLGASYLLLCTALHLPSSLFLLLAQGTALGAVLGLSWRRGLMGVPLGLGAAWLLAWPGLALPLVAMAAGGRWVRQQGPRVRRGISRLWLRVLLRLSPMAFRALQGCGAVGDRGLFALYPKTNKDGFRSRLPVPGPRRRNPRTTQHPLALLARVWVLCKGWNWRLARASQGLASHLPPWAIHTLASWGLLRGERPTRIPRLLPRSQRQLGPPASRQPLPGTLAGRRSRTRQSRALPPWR

KIT(V559D) = KIT(V559D) (Homo sapiens (Human), UniProt P10721, V559D)
PCTK2 (CDK17) = PCTK2 (CDK17) (Homo sapiens (Human), UniProt Q00537)
PIK3CA = PIK3CA (Homo sapiens (Human), UniProt P42336)
MKNK2 = MKNK2 (Homo sapiens (Human), UniProt Q9HBH9)
CSNK1G3 = CSNK1G3 (Homo sapiens (Human), UniProt Q9Y6M4)
Chain of CSNK1G3 (Q9Y6M4 whole entry): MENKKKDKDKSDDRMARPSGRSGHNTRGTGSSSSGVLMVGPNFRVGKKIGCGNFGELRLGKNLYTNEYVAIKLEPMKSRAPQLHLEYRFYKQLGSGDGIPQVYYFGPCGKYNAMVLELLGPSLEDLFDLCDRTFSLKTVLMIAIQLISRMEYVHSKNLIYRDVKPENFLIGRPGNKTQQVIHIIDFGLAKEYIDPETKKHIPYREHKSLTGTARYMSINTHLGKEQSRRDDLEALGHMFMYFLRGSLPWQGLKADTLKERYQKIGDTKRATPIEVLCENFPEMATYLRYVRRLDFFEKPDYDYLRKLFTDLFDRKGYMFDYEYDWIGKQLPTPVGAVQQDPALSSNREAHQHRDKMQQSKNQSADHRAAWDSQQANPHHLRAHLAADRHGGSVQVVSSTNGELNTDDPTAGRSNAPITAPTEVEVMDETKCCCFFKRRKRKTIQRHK

BMPR1A = BMPR1A (Homo sapiens (Human), UniProt P36894)
Chain of BMPR1A (P36894 24-532): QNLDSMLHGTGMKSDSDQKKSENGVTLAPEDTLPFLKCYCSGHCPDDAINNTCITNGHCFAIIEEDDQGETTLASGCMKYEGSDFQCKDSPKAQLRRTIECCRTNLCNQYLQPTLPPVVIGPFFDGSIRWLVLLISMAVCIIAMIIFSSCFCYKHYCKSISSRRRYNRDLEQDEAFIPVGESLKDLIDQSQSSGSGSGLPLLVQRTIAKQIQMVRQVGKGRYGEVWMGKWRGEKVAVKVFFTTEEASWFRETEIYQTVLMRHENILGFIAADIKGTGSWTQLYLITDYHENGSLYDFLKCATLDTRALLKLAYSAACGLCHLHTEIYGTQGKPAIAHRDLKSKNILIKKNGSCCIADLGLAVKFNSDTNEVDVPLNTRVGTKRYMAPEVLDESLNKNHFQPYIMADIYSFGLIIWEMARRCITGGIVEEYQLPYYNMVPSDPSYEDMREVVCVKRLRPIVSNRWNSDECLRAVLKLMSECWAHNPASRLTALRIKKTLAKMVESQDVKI

PDPK1 = PDPK1 (Homo sapiens (Human), UniProt O15530)
PRKG1 = PRKG1 (Homo sapiens (Human), UniProt Q13976)
Chain of PRKG1 (Q13976 whole entry): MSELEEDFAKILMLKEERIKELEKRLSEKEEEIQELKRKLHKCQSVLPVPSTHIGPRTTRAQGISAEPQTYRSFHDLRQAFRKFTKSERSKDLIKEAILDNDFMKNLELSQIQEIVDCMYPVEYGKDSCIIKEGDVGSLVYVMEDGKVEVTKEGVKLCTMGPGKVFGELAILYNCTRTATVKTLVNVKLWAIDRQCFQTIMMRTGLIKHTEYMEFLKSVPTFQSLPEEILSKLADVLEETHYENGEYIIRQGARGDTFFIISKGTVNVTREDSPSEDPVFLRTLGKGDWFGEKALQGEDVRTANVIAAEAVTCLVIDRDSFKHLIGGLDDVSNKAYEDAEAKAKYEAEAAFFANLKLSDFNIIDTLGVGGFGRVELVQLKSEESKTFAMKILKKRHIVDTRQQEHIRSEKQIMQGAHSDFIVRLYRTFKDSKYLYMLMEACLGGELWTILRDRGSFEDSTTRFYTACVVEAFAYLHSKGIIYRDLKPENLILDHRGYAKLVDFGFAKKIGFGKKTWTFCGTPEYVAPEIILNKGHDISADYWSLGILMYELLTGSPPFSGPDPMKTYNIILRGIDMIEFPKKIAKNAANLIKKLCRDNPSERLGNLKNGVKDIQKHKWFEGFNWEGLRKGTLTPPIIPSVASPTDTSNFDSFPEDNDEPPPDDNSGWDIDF

PKN1 = PKN1 (Homo sapiens (Human), UniProt Q16512)
BLK = BLK (Homo sapiens (Human), UniProt P51451)
ALK = ALK (Homo sapiens (Human), UniProt Q9UM73)
TLK2 = TLK2 (Homo sapiens (Human), UniProt Q86UE8)
GSK3A = GSK3A (Homo sapiens (Human), UniProt P49840)
WNK3 = WNK3 (Homo sapiens (Human), UniProt Q9BYP7)
Chain of WNK3 (Q9BYP7 whole entry): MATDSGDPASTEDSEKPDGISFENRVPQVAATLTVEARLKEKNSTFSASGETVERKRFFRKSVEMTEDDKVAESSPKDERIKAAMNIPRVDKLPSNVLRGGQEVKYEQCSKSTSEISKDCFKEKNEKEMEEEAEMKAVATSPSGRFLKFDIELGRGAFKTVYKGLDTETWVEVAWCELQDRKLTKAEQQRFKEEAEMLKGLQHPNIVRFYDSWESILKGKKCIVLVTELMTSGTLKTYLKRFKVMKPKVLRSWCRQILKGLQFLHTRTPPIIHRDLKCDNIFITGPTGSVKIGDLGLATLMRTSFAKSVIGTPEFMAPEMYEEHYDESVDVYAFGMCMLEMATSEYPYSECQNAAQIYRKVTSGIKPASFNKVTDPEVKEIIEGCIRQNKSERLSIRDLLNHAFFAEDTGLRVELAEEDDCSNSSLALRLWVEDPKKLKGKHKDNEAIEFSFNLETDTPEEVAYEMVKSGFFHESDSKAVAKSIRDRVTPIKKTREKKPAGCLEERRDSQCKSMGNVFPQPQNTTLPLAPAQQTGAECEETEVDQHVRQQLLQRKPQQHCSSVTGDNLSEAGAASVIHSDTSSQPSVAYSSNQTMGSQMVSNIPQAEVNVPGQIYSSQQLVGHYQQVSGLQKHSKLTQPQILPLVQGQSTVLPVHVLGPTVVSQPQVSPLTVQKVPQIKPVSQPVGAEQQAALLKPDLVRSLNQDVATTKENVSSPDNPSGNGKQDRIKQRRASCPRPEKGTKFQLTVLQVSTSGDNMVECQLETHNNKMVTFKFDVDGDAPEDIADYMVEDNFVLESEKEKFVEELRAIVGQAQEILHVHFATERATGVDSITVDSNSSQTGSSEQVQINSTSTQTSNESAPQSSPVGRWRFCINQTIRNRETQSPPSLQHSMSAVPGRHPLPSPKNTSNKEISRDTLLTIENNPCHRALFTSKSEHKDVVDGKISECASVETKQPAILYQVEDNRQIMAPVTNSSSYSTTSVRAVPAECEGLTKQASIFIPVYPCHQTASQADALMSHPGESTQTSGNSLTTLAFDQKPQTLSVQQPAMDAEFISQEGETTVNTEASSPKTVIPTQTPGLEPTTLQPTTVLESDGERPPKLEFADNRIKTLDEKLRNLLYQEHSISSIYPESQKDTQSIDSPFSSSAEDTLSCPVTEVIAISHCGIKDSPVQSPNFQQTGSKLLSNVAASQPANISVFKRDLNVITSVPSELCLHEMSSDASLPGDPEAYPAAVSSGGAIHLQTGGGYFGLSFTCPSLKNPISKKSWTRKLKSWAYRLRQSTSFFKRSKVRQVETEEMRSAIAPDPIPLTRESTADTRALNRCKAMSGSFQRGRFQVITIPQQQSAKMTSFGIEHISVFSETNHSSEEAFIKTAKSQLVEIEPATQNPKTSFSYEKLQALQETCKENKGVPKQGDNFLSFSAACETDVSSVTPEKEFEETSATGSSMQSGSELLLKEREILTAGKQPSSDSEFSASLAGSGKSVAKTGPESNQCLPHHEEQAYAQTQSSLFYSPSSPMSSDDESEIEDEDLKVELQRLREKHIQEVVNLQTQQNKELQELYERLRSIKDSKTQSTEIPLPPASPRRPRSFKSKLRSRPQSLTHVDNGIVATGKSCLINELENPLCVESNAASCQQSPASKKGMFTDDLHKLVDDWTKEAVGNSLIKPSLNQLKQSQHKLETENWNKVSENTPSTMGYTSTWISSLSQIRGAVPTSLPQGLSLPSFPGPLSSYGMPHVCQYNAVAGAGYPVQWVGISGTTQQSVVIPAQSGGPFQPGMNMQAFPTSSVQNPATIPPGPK

[5] = target: ABL1(F317L)-phosphorylated (Homo sapiens (Human), UniProt P00519, F317L)

In the case of `CN1CCN(C(=O)c2ccc3cc(CCNc4ccnc5ccc(C#N)cc45)ccc3c2)CC1` [compound 6148, 4-((2-(6-(4-methylpiperazine-1-carbonyl)naphthalen-2-yl)ethyl)amino)quinoline-6-carbonitrile], the remaining binding at 2 µM (FAK (PTK2)) is reported as 89%, the remaining binding at 2 µM [1] is reported as 90% and the remaining binding at 2 µM (NIM1 (MGC42105)) is reported as 67%. The remaining binding at 2 µM (MYLK) was 83%, the remaining binding at 2 µM (CDK3) was 86% and the remaining binding at 2 µM (CTK (MATK)) was 56%. The remaining binding at 2 µM [2] was 70%, the remaining binding at 2 µM (DRAK1 (STK17A)) was 100% and the remaining binding at 2 µM (MAP3K3) was 83%. It also gave a remaining binding at 2 µM (MLK1 (MAP3K9)) of 87%, a remaining binding at 2 µM (RAF1) of 98% and a remaining binding at 2 µM (MARK3) of 94%. It also gave a remaining binding at 2 µM [3] of 100%, a remaining binding at 2 µM (DYRK1A) of 63% and a remaining binding at 2 µM (BRAF) of 84%. It also gave a remaining binding at 2 µM (INSR) of 93%, a remaining binding at 2 µM (MUSK) of 90% and a remaining binding at 2 µM (TRPM6) of 88%. The remaining binding at 2 µM (FGFR4) was 96%, the remaining binding at 2 µM (ULK3) was 70% and the remaining binding at 2 µM (EGFR(G719C)) was 93%. It also gave a remaining binding at 2 µM (BRSK1) of 100%, a remaining binding at 2 µM (WEE1) of 88% and a remaining binding at 2 µM [4] of 93%. The remaining binding at 2 µM (TAOK2) was 77%, the remaining binding at 2 µM (KIT(V559D)) was 95% and the remaining binding at 2 µM (PCTK2 (CDK17)) was 98%. The remaining binding at 2 µM (PIK3CA) was 90%, the remaining binding at 2 µM (MKNK2) was 71% and the remaining binding at 2 µM (CSNK1G3) was 76%. For the same compound, the remaining binding at 2 µM (BMPR1A) was 95%, the remaining binding at 2 µM (PDPK1) was 86% and the remaining binding at 2 µM (PRKG1) was 100%. It also gave a remaining binding at 2 µM (PKN1) of 100%, a remaining binding at 2 µM (BLK) of 100% and a remaining binding at 2 µM (ALK) of 89%. For the same compound, the remaining binding at 2 µM (TLK2) was 88%, the remaining binding at 2 µM (GSK3A) was 94% and the remaining binding at 2 µM (WNK3) was 75%. For the same compound, the remaining binding at 2 µM [5] was 74%.
